Data set [1] has as its target T1, PARP-1 enzyme (Homo sapiens, UniProt P09874).
T1 construct: made in house
Put plainly: In vitro filtration assay for PARP-1 inhibitory activity. Type of data set: biochemical. The note with it: nicked DNA activated PARP-1, [32P]-NAD, histones; read-out: In vitro filtration assay pIC50 (converted). The method, then:
In Vitro Filtration Assay for PARP-1 Inhibitory Activity
Compounds of the present invention were tested in an in vitro filtration assay assessing PARP-1 activity (triggered in the presence of nicked DNA) by means of its histone poly (ADP-ribosyl)ation activity using [^32P]-NAD as ADP-ribosyl donor. The radioactive ribosylated histones were precipitated by trichloroacetic acid (TCA) in 96-well filterplates and the incorporated [^32P] measured using a scintillation counter A mixture of histones (stock solution: 5 mg/ml in H2O), NAD^+ (stock solution: 100 mM in H2O), and [^32P]-NAD^+ in incubation buffer (50 mM Tris/HCl, pH 8; 0.2 mM DTT; 4 mM MgCl2) was made. A mixture of the PARP-1 enzyme (5-10 μg/ml) and nicked DNA was also made. The nicked DNA was prepared as described in the in vitro SPA for PARP-1 inhibitory activity. Seventy-five μl of the PARP-1 enzyme/DNA mixture together with 1 μl of compound in DMSO and 25 μl of histones-NAD^+/[^32P]-NAD^+ mixture was added per well of a 96-well filterplate (0.45 μm, supplier Millipore). The final concentrations in the incubation mixture were 2 μg/ml for the histones, 0.1 mM for the NAD^+, 200 μM (0.5 μC) for the [^32P]-NAD^+ and 2 μg/ml for the nicked DNA. Plates were incubated for 15 min. at room temperature and the reaction was terminated by the addition of 10 μl ice cold 100% TCA followed by the addition of 10 μl ice-cold BSA solution (1% in H2O). The protein fraction was allowed to precipitate for 10 min. at 4° C. and plates were vacuum filtered. The plates were subsequently washed with, for each well, 1 ml of 10% ice cold TCA, 1 ml of 5% ice cold TCA and 1 ml of 5% TCA at room temperature. Finally 100 μl of scintillation solution (Microscint 40, Packard) was added to each well and the plates were transferred to a TopCountNXT™ (supplier: Packard) for scintillation counting and values were expressed as counts per minute (cpm). For each experiment, controls (containing PARP-1 enzyme and DMSO without compound), a blank incubation (containing DMSO but no PARP-1 enzyme or compound) and samples (containing PARP-1 enzyme and compound dissolved in DMSO) were run in parallel. All compounds tested were dissolved and eventually further diluted in DMSO. In first instance, compounds were tested at a concentration of 10^−5M. […] In each test, the blank value was subtracted from both the control and the sample values. The control sample represented maximal PARP-1 enzyme activity. For each sample, the amount of cpm was expressed as a percentage of the mean cpm value of the controls. When appropriate, IC50-values (concentration of the drug, needed to reduce the PARP-1 enzyme activity to 50% of the control) were computed using linear interpolation between the experimental points just above and below the 50% level. Herein the effects of test compounds are expressed as pIC50 (the negative log value of the IC50-value). As a reference compound, 4-amino-1,8-naphthalimide was included to validate the filtration assay.

Data set [2] addresses T1, PARP-1 enzyme. Briefly: In vitro Scintillation Proximity Assay (SPA) for PARP-1 inhibitory activity. Type of data set: biochemical. The note with it: nicked DNA activated PARP-1, [3H]-NAD+, biotinylated histones; read-out: In vitro SPA pIC50 (converted). The method, then: Pharmacological Example In Vitro Scintillation Proximity Assay (SPA) for PARP-1 Inhibitory Activity
Compounds of the present invention were tested in an in vitro assay based on SPA technology (proprietary to Amersham Pharmacia Biotech).
In principle, the assay relies upon the well established SPA technology for the detection of poly(ADP-ribosyl)ation of biotinylated target proteins, i.e histones. This ribosylation is induced using nicked DNA activated PARP-1 enzyme and [^3H]-nicotinamide adenine dinucleotide ([^3H]-NAD^+) as ADP-ribosyl donor.
As inducer of PARP-1 enzyme activity, nicked DNA was prepared. For this, 25 mg of DNA (supplier: Sigma) was dissolved in 25 ml DNAse buffer (10 mM Tris-HCl, pH 7.4; 0.5 mg/ml Bovine Serum Albumine (BSA); 5 mM MgCl2.6H2O and 1 mM KCl) to which 50 μl DNAse solution (1 mg/ml in 0.15 M NaCl) was added. After an incubation of 90 min. at 37° C., the reaction was terminated by adding 1.45 g NaCl, followed by a further incubation at 58° C. for 15 min. The reaction mixture was cooled on ice and dialysed at 4° C. for respectively 1.5 and 2 hours against 1.5 l of 0.2 M KCl, and twice against 1.5 l of 0.01 M KCl for 1.5 and 2 h respectively. The mixture was aliquoted and stored at −20° C. Histones (1 mg/ml, type II-A, supplier: Sigma) were biotinylated using the biotinylation kit of Amersham and stored aliquoted at −20° C. A stock solution of 100 mg/ml SPA poly(vinyl toluene) (PVT) beads (supplier: Amersham) was made in PBS. A stock solution of [^3H]-NAD^+ was made by adding 120 μl of [^3H]-NAD^+ (0.1 mCi/ml, supplier: NEN) to 6 ml incubation buffer (50 mM Tris/HCl, pH 8; 0.2 mM DTT; 4 mM MgCl2). A solution of 4 mM NAD^+ (supplier: Roche) was made in incubation buffer (from a 100 mM stock solution in water stored at −20° C.). The PARP-1 enzyme was produced using art known techniques, i.e. cloning and expression of the protein starting from human liver cDNA. Information concerning the used protein sequence of the PARP-1 enzyme including literature references can be found in the Swiss-Prot database under primary accession number P09874. Biotinylated histones and PVT-SPA beads were mixed and pre-incubated for 30 min. at room temperature. PARP-1 enzyme (concentration was lot dependent) was mixed with the nicked DNA and the mixture was pre-incubated for 30 min. at 4° C. Equal parts of this histones/PVT-SPA beads solution and PARP-1 enzyme/DNA solution were mixed and 75 μl of this mixture together with 1 μl of compound in DMSO and 25 μl of [^3H]-NAD^+ was added per well into a 96-well microtiterplate. The final concentrations in the incubation mixture were 2 μg/ml for the biotinylated histones, 2 mg/ml for the PVT-SPA beads, 2 μg/ml for the nicked DNA and between 5-10 μg/ml for the PARP-1 enzyme. After incubation of the mixture for 15 min. at room temperature, the reaction was terminated by adding 100 μl of 4 mM NAD^+ in incubation buffer (final concentration 2 mM) and plates were mixed.
The beads were allowed to sediment for at least 15 min. and plates transferred to a TopCountNXT™ (Packard) for scintillation counting, values were expressed as counts per minute (cpm). For each experiment, controls (containing PARP-1 enzyme and DMSO without compound), a blank incubation (containing DMSO but no PARP-1 enzyme or compound) and samples (containing PARP-1 enzyme and compound dissolved in DMSO) were run in parallel. All compounds tested were dissolved and eventually further diluted in DMSO. […] In each test, the blank value was subtracted from both the control and the sample values. The control sample represented maximal PARP-1 enzyme activity. For each sample, the amount of cpm was expressed as a percentage of the mean cpm value of the controls. When appropriate, IC50-values (concentration of the drug, needed to reduce the PARP-1 enzyme activity to 50% of the control) were computed using linear interpolation between the experimental points just above and below the 50% level. […]

T1 sequence (P09874 whole entry): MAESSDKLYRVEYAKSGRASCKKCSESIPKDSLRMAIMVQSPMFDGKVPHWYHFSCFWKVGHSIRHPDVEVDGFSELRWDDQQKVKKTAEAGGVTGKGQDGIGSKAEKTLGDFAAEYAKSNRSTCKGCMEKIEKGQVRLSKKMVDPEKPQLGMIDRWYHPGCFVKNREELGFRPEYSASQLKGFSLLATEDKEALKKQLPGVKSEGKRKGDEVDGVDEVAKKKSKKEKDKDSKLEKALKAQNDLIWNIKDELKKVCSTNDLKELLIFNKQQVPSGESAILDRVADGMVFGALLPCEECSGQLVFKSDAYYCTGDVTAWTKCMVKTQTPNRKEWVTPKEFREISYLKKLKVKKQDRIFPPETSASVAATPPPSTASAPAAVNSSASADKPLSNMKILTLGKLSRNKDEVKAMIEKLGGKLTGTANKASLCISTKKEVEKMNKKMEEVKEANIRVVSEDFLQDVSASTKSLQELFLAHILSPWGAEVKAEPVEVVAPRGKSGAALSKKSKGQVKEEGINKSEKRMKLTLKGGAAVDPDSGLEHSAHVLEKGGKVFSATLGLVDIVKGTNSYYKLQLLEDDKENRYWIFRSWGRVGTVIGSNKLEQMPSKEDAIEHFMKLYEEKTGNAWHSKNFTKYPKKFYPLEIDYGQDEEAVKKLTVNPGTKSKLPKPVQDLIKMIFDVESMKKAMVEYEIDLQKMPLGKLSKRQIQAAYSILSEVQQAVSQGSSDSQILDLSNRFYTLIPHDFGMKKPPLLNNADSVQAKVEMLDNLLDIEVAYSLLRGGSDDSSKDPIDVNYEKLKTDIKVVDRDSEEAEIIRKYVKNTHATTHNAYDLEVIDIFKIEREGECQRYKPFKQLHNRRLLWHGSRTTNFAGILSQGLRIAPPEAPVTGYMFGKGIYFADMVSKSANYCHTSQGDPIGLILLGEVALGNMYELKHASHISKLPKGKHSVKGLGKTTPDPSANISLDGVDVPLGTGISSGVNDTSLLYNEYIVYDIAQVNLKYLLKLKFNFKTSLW

Turning to `CCc1cc2cc(C(O)CN3CCCCC3)ccc2[nH]c1=O` (stereo not drawn) [Co. No. 1], the melting point stood at 172 °C. Also, the IC50 on PARP-1 enzyme [1] was 349 nM. Besides, the IC50 at PARP-1 enzyme [2] is 329 nM.
`CCc1cc2cc(C(C3CCCCCC3)N3CCC(=O)CC3)ccc2[nH]c1=O` (stereo not drawn) [Co. No. 2] came in with a melting point of 218 °C. The IC50 on PARP-1 enzyme [1] is 568 nM. Also, at PARP-1 enzyme [2], the IC50 was 232 nM.
In turn, `CCOC(=O)C1CCN(C(C)Cc2ccc3[nH]c(=O)c(CC)nc3c2)CC1` (stereo not drawn) [Co. No. 3] had a melting point of 163 °C. Moreover, the IC50 at PARP-1 enzyme [2] is 861 nM.
In turn, `CCc1cc2cc(C(C3CCCCC3)N3CCC4(CC3)CO4)ccc2[nH]c1=O` (stereo not drawn) [Co. No. 4] showed a melting point of 200 °C. The IC50 at PARP-1 enzyme [1] is 1520 nM. Also, on PARP-1 enzyme [2], the IC50 was 300 nM.
As for `CCc1cc2cc(CN3CCN(Cc4ccccc4)CC3)ccc2[nH]c1=O` [Co. No. 7], the melting point turned out to be 194 °C. The IC50 on PARP-1 enzyme [2] was 94.6 nM.
Regarding `CCc1cc2cc(C(OCCN(C)C)C3CCCCC3)ccc2[nH]c1=O` (stereo not drawn) [Co. No. 10], the IC50 on PARP-1 enzyme [2] is > 1000 nM.
For the molecule `CCc1cc2cc(C(c3cccs3)N3CCC(NCCOC)CC3)ccc2[nH]c1=O` (stereo not drawn) [Co. No. 12], the values for the IC50 at PARP-1 enzyme [1] and at PARP-1 enzyme [2] were 2270 nM and 188 nM, respectively.
For `CCc1cc2cc(C(O)CN3CCN(C)CC3)ccc2[nH]c1=O` (stereo not drawn) [Co. No. 14] the same measures were 1840 nM and 388 nM.
On to `CCc1cc2cc(C(O)CN3CCOCC3)ccc2[nH]c1=O` (stereo not drawn) [Co. No. 15], for which the IC50 at PARP-1 enzyme [1] was 2540 nM; at PARP-1 enzyme [2], 288 nM.
In the same order, the values of `CCc1cc2cc(C(CC(C)C)N3CCC(=O)CC3)ccc2[nH]c1=O` (stereo not drawn) [Co. No. 16] are 1840 nM and 230 nM.
Take `CCc1cc2cc(C(C(CC)CC)N3CCC(=O)CC3)ccc2[nH]c1=O` (stereo not drawn) [Co. No. 17]: the IC50 at PARP-1 enzyme [1] is 2560 nM; at PARP-1 enzyme [2], 383 nM.
Take `CCc1cc2cc(C(NCCOC)C3CCCCC3)ccc2[nH]c1=O` (stereo not drawn) [Co. No. 18]: the IC50 on PARP-1 enzyme [1] was 2990 nM; at PARP-1 enzyme [2] it was 750 nM.
For the molecule `CCc1nc2cc(C(C(C)C)N3CCC(=O)CC3)ccc2[nH]c1=O` (stereo not drawn) [Co. No. 19], the IC50 on PARP-1 enzyme [2] was 757 nM.
`CCc1cc2cc(C(SCCN(C)C)C3CCCCC3)ccc2[nH]c1=O` (stereo not drawn) [Co. No. 20]: the IC50 at PARP-1 enzyme [1] is 1840 nM; on PARP-1 enzyme [2], 600 nM.
As to `CCc1cc2cc(C(C3CCCCC3)N3CCN(C)CC3)ccc2[nH]c1=O` (stereo not drawn) [Co. No. 21], the IC50 on PARP-1 enzyme [2] was 902 nM.
For `CCc1cc2cc(C(c3cccnc3)N3CCC(=O)CC3)ccc2[nH]c1=O` (stereo not drawn) [Co. No. 22], the values for the IC50 at PARP-1 enzyme [1] and at PARP-1 enzyme [2] were 1180 nM and 198 nM, respectively.
As for `CCc1cc2cc(C(c3ccsc3)N3CCC(=O)CC3)ccc2[nH]c1=O` (stereo not drawn) [Co. No. 23], the IC50 was 1260 nM at PARP-1 enzyme [1] and 232 nM on PARP-1 enzyme [2].
Take `CCc1cc2cc(C(C3CC=CCC3)N3CCC(=O)CC3)ccc2[nH]c1=O` (stereo not drawn) [Co. No. 24]: the IC50 is 1330 nM on PARP-1 enzyme [1] and 277 nM on PARP-1 enzyme [2].
On to `CCc1cc2cc(C(NCCN(C)C)C3CCCCC3)ccc2[nH]c1=O` (stereo not drawn) [Co. No. 25], for which the IC50 is 6010 nM on PARP-1 enzyme [1] and 1110 nM on PARP-1 enzyme [2].
Turning to `CCc1nc2cc(C(C(C)C)N3CCC(c4n[nH]c5cc(F)ccc45)CC3)ccc2[nH]c1=O` (stereo not drawn) [Co. No. 26], the IC50 on PARP-1 enzyme [2] is 536 nM.
In the case of `CCc1cc2cc(C(O)C3CCN(Cc4ccccc4)CC3)ccc2[nH]c1=O` (stereo not drawn) [Co. No. 27], the IC50 was 2200 nM on PARP-1 enzyme [1] and 180 nM on PARP-1 enzyme [2].
As to `CCc1cc2cc(C(O)C3CCCCC3)ccc2[nH]c1=O` (stereo not drawn) [Co. No. 28], the IC50 was 3150 nM on PARP-1 enzyme [1] and 288 nM on PARP-1 enzyme [2].
As for `CCc1cc2cc([C@@H](NCCN(C)C)C3CCCCC3)ccc2[nH]c1=O` [Co. No. 29], the results for the IC50 at PARP-1 enzyme [1] and on PARP-1 enzyme [2] were 5420 nM and 841 nM, respectively.
As to `CCc1cc2cc([C@@H](C3CCCCC3)N3CCN(CCOC)CC3)ccc2[nH]c1=O` [Co. No. 30], the values for the IC50 at PARP-1 enzyme [1] and on PARP-1 enzyme [2] were 9180 nM and 1280 nM, respectively.
Regarding `CCc1cc2cc(C(C3CCCCC3)N3CCC(NCc4cccnc4)CC3)ccc2[nH]c1=O` (stereo not drawn) [Co. No. 31], the figures for the IC50 at PARP-1 enzyme [1] and at PARP-1 enzyme [2] were 8260 nM and 863 nM, respectively.
For `CCc1cc2cc(C(c3ccsc3)N3CCC(NCCOC)CC3)ccc2[nH]c1=O` (stereo not drawn) [Co. No. 32] the same measures were 2830 nM and 196 nM.
For `CCCCC(c1ccc2[nH]c(=O)c(CC)cc2c1)N1CCC(NCCOC)CC1` (stereo not drawn) [Co. No. 33], the IC50 is 4210 nM on PARP-1 enzyme [1] and 832 nM at PARP-1 enzyme [2].
As to `CCc1cc2cc(C(C3CCCCC3)N3CCC(O)CC3)ccc2[nH]c1=O` (stereo not drawn) [Co. No. 34], the IC50 on PARP-1 enzyme [1] was 2430 nM; on PARP-1 enzyme [2] it was 853 nM.
On to `CCc1cc2cc(C(C3CCCCC3)N3CCC(N4CCOCC4)CC3)ccc2[nH]c1=O` (stereo not drawn) [Co. No. 35], for which the IC50 at PARP-1 enzyme [1] was 3400 nM; at PARP-1 enzyme [2], 640 nM.
For `CCc1cc2cc(C(=O)CN3CCOCC3)ccc2[nH]c1=O` [Co. No. 36], the figures for the IC50 on PARP-1 enzyme [1] and on PARP-1 enzyme [2] were 2610 nM and 568 nM, respectively.
Turning to `CCc1cc2cc(CCN3CCC(NCCOC)CC3)ccc2[nH]c1=O` [Co. No. 37], the IC50 on PARP-1 enzyme [2] is 853 nM.

Broadly, the melting point is the temperature, or range, at which the solid turns liquid.
